The text below walks through data of publication PMC10135315 (Antioxidants, 2023).

Experiment [1] concerns the target T1, xanthine oxidase from bovine milk (Bos taurus, UniProt P80457).
T1 construct: xanthine oxidase from bovine milk (0.5 U/mg); purchased Sigma-Aldrich (St. Louis, MO, USA); host or cells: bovine milk (natural source)
The experiment is described as follows: Steady-state determination of XO activity (uric acid formation at 295 nm), dose-dependent inhibition. It is filed as biochemical. The note with it: 75 µM xanthine; for IC50: steady-state determination, 25 °C, pH 7.8. Here is the method: The activity of XO was measured spectrophotometrically at 25 °C by monitoring the increase of absorbance at 295 nm due to the formation of uric acid, using a Cary 100 UV-Vis Spectrophotometer (Agilent Technologies, Milan, Italy), essentially, as previously reported. […] The DMSO concentration carried over by the inhibitor was 0.5% (v/v); an identical concentration of DMSO was used in the absence of inhibitor. The reaction started with the addition of XO and was followed kinetically up to 30 s by continuously monitoring the absorbance. The initial rate of uric acid formation was derived from the linear part of the kinetics and expressed as ΔE/min. The effect of each inhibitor was evaluated through the ratio of residual XO activity measured in the presence of each inhibitor over that measured in the absence of inhibitor.

In experiment [2] the target is T1, xanthine oxidase from bovine milk. In words: Kinetic measurements of XO activity (Michaelis-Menten / Lineweaver-Burk). The class given is biochemical. The note with it: for Ki / Vmax in presence of inhibitor: 4-30 µM xanthine; for Ki: from increase of KM for xanthine, competitive model; for Mechanism of XO inhibition: kinetic analysis; for Vmax in presence of inhibitor: pooled over the tested inhibitor concentrations. The protocol: The inhibition power of the various compounds and their mechanism of inhibition were assessed through kinetic measurements of the XO activity. To this aim, each assay was carried out in a 500 µL final volume reaction mixture, containing 4–30 µM xanthine dissolved in buffer A in the absence or presence of a fixed concentration of the various inhibitors. The reaction started with the addition of XO and was followed as indicated in steady-state assays. The kinetic parameters of the reaction, KM for the substrate and Vmax of the reaction, were derived either from the direct non-linear interpolation in the Michaelis–Menten hyperbolic equation of the initial rate of uric acid formation vs. the xanthine concentration or from a double reciprocal transformation of the kinetic data in Lineweaver–Burk plots. […] Therefore, the inhibition constant (Ki) was obtained from the increase of KM for xanthine in the presence of the inhibitor, according to the KM′ = KM•{1 + ([I]/Ki)} equation, where KM′ represents the KM for xanthine measured in the presence of the concentration [I] of the inhibitor.

Experiment [3] shares this target. The experiment is described as follows: Reversibility of XO inhibition by dilution method. It is filed as biochemical. Here is the method: The reversibility of the inhibition mechanism was evaluated through a dilution method of a solution containing XO and inhibitor. To this aim, a sample of XO was incubated at 25 °C in the absence or presence of a concentrated solution of inhibitor. Aliquots of these mixtures were withdrawn at different times and 4-fold diluted through the addition of a solution containing the substrate xanthine. The samples were then immediately assayed for XO activity as previously indicated for the steady-state determinations.

In a further experiment the test system is XO. To be noted: cited from earlier work.
The mark [4] stands for this setting: known XO inhibitors co-crystallised into XO, no reference given.

Read-outs that look alike come from different tables or passages of the source.

T1 sequence (P80457 whole entry): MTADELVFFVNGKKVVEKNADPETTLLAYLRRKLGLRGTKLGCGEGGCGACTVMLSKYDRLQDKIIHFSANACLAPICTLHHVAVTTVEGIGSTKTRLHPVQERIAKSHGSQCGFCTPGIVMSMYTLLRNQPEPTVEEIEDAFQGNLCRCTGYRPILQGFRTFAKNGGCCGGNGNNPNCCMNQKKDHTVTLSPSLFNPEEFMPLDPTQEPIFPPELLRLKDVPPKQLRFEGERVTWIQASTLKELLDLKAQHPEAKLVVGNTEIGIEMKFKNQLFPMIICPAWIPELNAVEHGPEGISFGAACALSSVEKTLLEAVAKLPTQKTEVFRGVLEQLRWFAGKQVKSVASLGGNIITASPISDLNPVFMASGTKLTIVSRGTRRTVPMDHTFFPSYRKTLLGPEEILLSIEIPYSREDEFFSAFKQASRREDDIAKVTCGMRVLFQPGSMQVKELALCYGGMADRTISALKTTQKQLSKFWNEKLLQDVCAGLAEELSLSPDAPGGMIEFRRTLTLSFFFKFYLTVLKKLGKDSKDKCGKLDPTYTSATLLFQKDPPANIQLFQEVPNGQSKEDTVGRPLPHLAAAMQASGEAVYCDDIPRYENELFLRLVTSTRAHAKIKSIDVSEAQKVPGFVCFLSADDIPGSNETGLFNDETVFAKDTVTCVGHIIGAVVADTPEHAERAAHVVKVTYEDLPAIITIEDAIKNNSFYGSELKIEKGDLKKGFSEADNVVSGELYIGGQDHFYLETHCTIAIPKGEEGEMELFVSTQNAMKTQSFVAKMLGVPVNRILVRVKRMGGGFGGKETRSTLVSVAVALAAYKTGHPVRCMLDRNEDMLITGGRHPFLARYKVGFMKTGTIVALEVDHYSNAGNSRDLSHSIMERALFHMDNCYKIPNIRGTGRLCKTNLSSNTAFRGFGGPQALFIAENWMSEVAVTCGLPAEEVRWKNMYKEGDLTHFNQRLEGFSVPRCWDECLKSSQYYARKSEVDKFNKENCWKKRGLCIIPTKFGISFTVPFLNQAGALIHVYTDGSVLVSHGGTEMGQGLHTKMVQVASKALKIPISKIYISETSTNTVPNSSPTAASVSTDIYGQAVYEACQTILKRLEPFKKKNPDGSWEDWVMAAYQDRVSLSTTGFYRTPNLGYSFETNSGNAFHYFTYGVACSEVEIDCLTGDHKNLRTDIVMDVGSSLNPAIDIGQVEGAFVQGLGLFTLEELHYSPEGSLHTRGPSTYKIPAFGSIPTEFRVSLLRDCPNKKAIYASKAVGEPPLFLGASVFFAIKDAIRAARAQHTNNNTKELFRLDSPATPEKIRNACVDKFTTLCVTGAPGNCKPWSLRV

For the molecule `O=C(O)c1cc2ccc(Br)cc2[nH]1` [ALS-1], in experiment [1], the “Inhibition profile of XO activity” value is “dose-dependent inhibition” and the IC50 – broadly, the concentration that inhibits the measured activity by half – was 82 µM. Also, in experiment [2], the Ki (in general, the dissociation constant of the complex between target and ligand, obtained from inhibition or displacement) came to 41 ± 14 µM; the “Mechanism of XO inhibition” value was “competitive inhibitors”; the “Vmax in presence of inhibitor” value was 0.087 ± 0.004 (n = 2) ΔE/min.

With `O=C(O)c1cc(-c2cccc(F)c2)[nH]n1` [ALS-8], in experiment [1], the “Inhibition profile of XO activity” value is “dose-dependent inhibition” and it took 30 µM to reach half-maximal inhibition (IC50). Moreover, in experiment [2], the Ki was 4.5 ± 1.5 µM, the “Mechanism of XO inhibition” value is given as “competitive inhibitors” and the “Vmax in presence of inhibitor” value was 0.093 ± 0.007 (n = 4) ΔE/min.

Take `Brc1cncc(-c2nn[nH]n2)c1` [ALS-15]: in experiment [1], the “Inhibition profile of XO activity” value was “dose-dependent inhibition” and 64 µM corresponded to half-maximal inhibition (IC50). For the same molecule, in experiment [2], the Ki worked out at 23 ± 9 µM, the “Mechanism of XO inhibition” value is reported as “competitive inhibitors” and the “Vmax in presence of inhibitor” value is on record as 0.086 ± 0.003 (n = 4) ΔE/min.

For the molecule `O=C(O)c1cc(-c2ccc(Cl)cc2)ncn1` [ALS-28], in experiment [3] (60 µM inhibitor, 25 °C, up to 30 min), the “Time-dependent reduction of XO activity” value is recorded as “no time-dependent reduction of XO activity”. Moreover, the Reversibility of inhibition result in experiment [3] (preincubation with XO at 25 °C up to 30 min, then 4-fold dilution (ALS-28: 60 µM to 15 µM)) is given as “reversible inhibitor”. In experiment [1], the “Inhibition profile of XO activity” value is “dose-dependent inhibition” and the IC50 amounted to 18 µM. Moreover, in experiment [2], the Ki amounted to 2.7 ± 1.5 µM, the “Mechanism of XO inhibition” value is listed as “competitive inhibitors” and the “Vmax in presence of inhibitor” value is listed as 0.113 ± 0.007 (n = 4) ΔE/min.

`N#Cc1cc(-c2n[nH]c(-c3ccncc3)n2)ccn1` [FYX-051, topiroxostat]: the Inhibition mechanism result in the experiment on XO was “hybrid-type inhibition mechanism”.

In the case of `Cc1nc(-c2ccc(OCC(C)C)c(C#N)c2)sc1C(=O)O` [TEI-6720, febuxostat], in the experiment with XO, the Inhibition mechanism entry is “mixed-type inhibition”.

Take `O=c1c(O)c(-c2ccc(O)c(O)c2)oc2cc(O)cc(O)c12` [quercetin]: the Inhibition mechanism result with XO (setting [4]) is given as “competitive”.

As to `O=C(O)c1ccccc1O` [salicylic acid], the Inhibition mechanism result in the experiment with XO (setting [4]) is reported as “competitive inhibitor”.
